Measured values published in patent US5480880A, “Penem derivatives” (Farmitalia Carlo Erba S.r.l., priority 1991, dated 1996).

Legend:
Acute toxicity in mice = conditions: in vivo; mouse, I.D. (so in the source)
[1] = tested on: Staphylococcus aureus Smith ATCC 13709; assay: In vivo activity on mouse systemic infection, S. aureus (ED50); conditions: ATCC13709, sc, 120 h, mouse systemic infection (female CD1), subcutaneous, treatment 120 min after infection, survival on day 5, read-out: ED50 (cumulative subcutaneous dose)
Experimental: (§1) Invivo activity of Compound of formula (I), R =
(§2) CH2 SO2 NHCN (Example 1), in comparison with FCE 22101*,
(§3) on mouse^a systemic infections.
(§4) ^a) Female mice CD1 (Charles River, Italy), weighing 22 ± 2 g were
(§5) used, experimentally infected by an introperitoneal route. Eight animals
(§6) were used at each of the concentrations of compound tested, which were
(§7) administered subcutaneously (0.1 ml/10 g weight). The mortality was
(§8) recorded daily and the number of animals surviving on day 5 was used to
(§9) calculate the cumulative effective dose (ED50).
(§10) ^b) Cumulative subcutaneous dose.
(§11) ^c) Infecting organisms were: S. aureus, Staphylococcus aureus Smith
(§12) ATCC 13709; E. Coli, Escherichia coli G (clinical isolate); S. faecalis,
(§13) ^d) Minutes after infection.

[2] = tested on: Escherichia coli G (clinical isolate); assay: In vivo activity on mouse systemic infection, E. coli (ED50); conditions: sc, 120 h, mouse systemic infection (female CD1), subcutaneous, treatment 30-90-360 min after infection, survival on day 5, read-out: ED50 (cumulative subcutaneous dose)
Experimental: as §1, §2, §3, §4, §5, §6, §7, §8, §9, §10, §11, §12, §13

[3] = tested on: Streptococcus faecalis 3817 (clinical isolate); assay: In vivo activity on mouse systemic infection, S. faecalis (ED50); conditions: Enterococcus faecalis, sc, 120 h, mouse systemic infection (female CD1), subcutaneous, treatment 60-180 min after infection, survival on day 5, read-out: ED50 (cumulative subcutaneous dose)
Experimental: as §1, §2, §3, §4, §5, §6, §7, §8, §9, §10, §11, §12
Streptococcus faecalis 3817 (clinical isolate).
as §13

SMILES	LD50 (Acute toxicity in mice) [mg/kg]	ED50 [1] [mg/kg]	ED50 [2] [mg/kg]	ED50 [3] [mg/kg]
CC(O)C1C(=O)N2C(C(=O)O)=C(c3ccc(C[n+]4ccc(CS(=O)(=O)[N-]C#N)cc4)cc3)SC12 [Example 1, (5R,6S)-6-/1 (R)-Hydroxyethyl/-2-/4-/4-(N-cyanosulfamoylato) methyl-1-pyridinio/methylphenyl/penem-3-carboxylic acid]	> 3000	0.16	0.65	8.5
CC(O)C1C(=O)N2C(C(=O)O)=C(COC(N)=O)SC12 (stereo not shown) [FCE 22101, reference compound]	–	0.7	10	80
